Here are results for 79 compounds from the METLIN SMRT retention time set (Domingo-Almenara et al. 2019).

This data set can be described thus: gradient 5% acetonitrile 3 min, to 50% in 2 min, to 85% in 15 min, held 3 min, 100 µL/min. The conditions noted are these: column: Zorbax Extend-C18 2.1 x 50 mm; eluents: water / acetonitrile, 0.1% formic acid. The gist of the method: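 Data were gathered over 3 months by HPLC coupled to a quadrupole time-of-flight mass spectrometer, operated in positive and negative ionization mode. Mixtures of ~100 pure standards ran on a Zorbax Extend-C18 column (2.1 × 50 mm, 1.8 μm) at 100 μL/min, with water and acetonitrile each containing 0.1% formic acid and dead and dwell volumes of 40 μL and 900 μL. Retention time was read from adduct peaks picked by computer and checked manually.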
Compound `COc1ccc(C(=O)N2CCN(c3ccc(-c4nc(C)cs4)cn3)CC2)cc1OC` came in with an RP-LC retention time of 736 s. With `Cc1ccc(NS(=O)(=O)c2cc3c(s2)CCN(C(=O)C2CCC2)C3)cc1Cl`, the RP-LC retention time is 1010 s. In turn, `O=C(N[C@@H]1CN(c2ncccn2)C[C@H]1CO)c1ccc(Cl)cc1` came in with an RP-LC retention time of 628 s. To `Fc1ccc(OCc2nc(-c3cccc(-c4csc(C5CC5)n4)c3)no2)cc1` belongs 1290 s; to `Cn1nccc1C(=O)N1CCN(c2cc(-c3ccccc3)[nH]n2)CC1`, 671 s; to `CC(C)(O)CC[C@@H](O)[C@@](C)(O)[C@H]1CC[C@@]2(O)C3=CC(=O)[C@@H]4C[C@@H](O)[C@@H](O)C[C@]4(C)[C@H]3CC[C@]12C`, 607 s.

With `N#Cc1ccc(C(=O)N2CCCC2c2nc(-c3cccc(C(F)(F)F)c3)no2)c(F)c1` (centres undefined), the RP-LC retention time turned out to be 1060 s. To `CCN1CCN(c2cc(C)c3cc(NC(=S)N4CCC(Cc5ccccc5)CC4)ccc3n2)CC1` belongs 699 s; to `CN1c2ccc(F)cc2C(=O)NC12CCN(C(=O)c1ccc(Cl)cc1)CC2`, 785 s.

Turning to `COc1ccc(Cl)cc1S(=O)(=O)N1C[C@@H]2C[C@H]1C[C@@H]2NC(=O)c1ccccc1`, the RP-LC retention time was determined as 873 s.

On to `Cc1cccc(N2CCN(C(=O)Cn3ccc4ccc(N5CCOCC5)nc43)CC2)c1C`, for which the RP-LC retention time stood at 1110 s. Next, `COc1cc(-c2noc(CCn3nc(-c4ccccc4)ccc3=O)n2)cc(OC)c1OC`: 955 s; `O=C(CCCCCCNC(=O)c1cnc(N(c2ccccc2)c2ccccc2)nc1)NO`: 771 s. To `CCn1ccc2c(cc(C(=O)Nc3ccc(OC)c(Cl)c3)n2C)c1=O` belongs 1330 s; to `CCC(=O)N(C1CCOCC1)C1CCN(S(=O)(=O)c2ccc(F)cc2)CC1`, 792 s. Compound `Cc1cc2c(cc1C(=O)NCc1cccs1)OCCCO2` came in with an RP-LC retention time of 804 s. The compound `COc1cc(CNC(=O)c2ccc3c(c2)N(C)C(=O)C2CCCCN32)cc(OC)c1OC` (centres undefined) yielded an RP-LC retention time of 790 s. Turning to `CCc1ccc(C(=O)Nc2cnn(CC)c(=O)c2N2CCOCC2)cc1`, the RP-LC retention time came out at 1070 s. Next, `O=C(C1CCN(S(=O)(=O)c2ccc(-c3noc(C4CC4)n3)cc2)CC1)N1CCc2ccccc21`: 800 s. In the case of `CCc1cccc(C)c1NC(=O)CCC(=O)N1CCOc2ccccc21`, the RP-LC retention time came out at 854 s. With `O=C(c1cccs1)N1CCC(c2noc(-c3ccncc3)n2)C1` (centres undefined), the RP-LC retention time amounted to 685 s.

`Cc1ccc(N2C(=O)CN(S(C)(=O)=O)CC2(C)C(=O)NC2CCCCC2)cc1Cl` (centres undefined) yielded an RP-LC retention time of 892 s. Take `COc1cccc(-c2nc(-c3ccc4nnn(C(C)C)c4c3)no2)c1`: the RP-LC retention time is 1150 s. Compound `CCN1C(=O)COc2ccc(-c3csc(NC(=O)c4ccncc4)n3)cc21` displayed an RP-LC retention time of 748 s. Next, `COc1cc([N+](=O)[O-])ccc1NC(=O)CCS(=O)(=O)c1ccc(Cl)cc1`: 854 s; `Cc1ccc(S(=O)(=O)N2CCc3nc[nH]c3C2)cc1Cl`: 642 s. Next, `Cc1cc(=O)n(CC(=O)NCc2ccc(F)cc2)c(N2CCCCC2)n1`: 656 s; `CCOc1ccc(-n2ccn3cc(-c4ccc(Br)cc4)nc3c2=O)cc1`: 954 s; `[O-][n+]1nc2ccccc2c2ccccc21`: 812 s. For the compound `CCOc1ccc(-c2nc(NC(=O)Cc3csc(C)n3)sc2C)cc1`, the RP-LC retention time came out at 938 s.

Compound `COC(=O)CN1N=C(C(=O)N2CCC(C)CC2)S(=O)(=O)c2ccccc21` returned an RP-LC retention time of 825 s. Take `Cc1noc(C)c1CN1CCN(C(=O)C(C)(C)Oc2ccc(Cl)cc2)CC1`: the RP-LC retention time was 606 s.

`COc1cc(NC(=O)c2ccc(-n3cnc(NC(=O)C4CC4)c3)cc2)cc(OC)c1` registered an RP-LC retention time of 744 s. In turn, `CN(Cc1ccccc1)C(=O)Cn1cccc1-c1nnc(-c2ccccc2)o1` registered an RP-LC retention time of 940 s. For `O=C(Nc1nccs1)C1CCN(C(=O)c2cnn(-c3ccccc3)n2)CC1`, the RP-LC retention time was determined as 743 s. On to `CC(=O)c1cccc(NC(=O)N2CCc3c(c(COc4ccc(F)cc4)nn3C)C2)c1`, for which the RP-LC retention time amounted to 801 s. On to `CCCS(=O)(=O)N1CCC2(CC1)CN(c1ccccc1)C2=O`, for which the RP-LC retention time stood at 812 s. On to `O=C(C1CC=CC1)N1CCC2(CC1)NCCc1c2[nH]c2ccccc12`, for which the RP-LC retention time stood at 643 s. On to `COCC1CN(C2CCC2)CC12CCN(C(=O)Cc1ccsc1)CC2` (centres undefined), for which the RP-LC retention time came to 608 s.

In turn, `Cn1ccc2cc(C(=O)NC3CCCC3)ccc21` displayed an RP-LC retention time of 806 s.

Take `Cc1nnc2ccc(NC3CCCC3)nn12`: the RP-LC retention time turned out to be 818 s.

`CCOC(=O)c1[nH]c(C)c(CCC(=O)N2CCCC(C(=O)N3CCCCCC3)C2)c1C` (centres undefined) displayed an RP-LC retention time of 800 s.

The compound `Cc1cccc(NC(=O)C2CCN(S(=O)(=O)c3ccc4c(c3)NC(=O)C(C)O4)CC2)c1C` (centres undefined) gave an RP-LC retention time of 818 s. Next, `O=S(=O)(Cc1ccc(Cl)cc1)N1CCc2nc(-c3ccc(F)cc3)ncc2C1`: 1100 s; `COC(=O)c1ccccc1NC(=O)N1CCCn2nc(-c3cccn3C)cc21`: 958 s. Take `CCn1nccc1C(=O)Nc1ccc2c(c1)CCC(=O)N2C`: the RP-LC retention time was found to be 644 s. Consider `CC(=O)Nc1ccc(CCc2nc3ccc(C(=O)NCc4cccc(Br)c4)cc3[nH]2)cc1`, for which the RP-LC retention time was 669 s. Next, `O=C1CCCc2cc(S(=O)(=O)N3CCC(C(=O)NC4CCCC4)CC3)ccc2N1`: 761 s; `CCc1nn2c(CNS(=O)(=O)c3cc(C)ccc3C)c(-c3ccccc3)nc2s1`: 986 s; `O=C(C1CC(=O)N(c2ccc(F)cc2)C1)N1CC(c2nc(-c3ccccn3)no2)C1` (centres undefined): 650 s. `O=C(CN1c2ccc(F)cc2-c2ccccc2S1(=O)=O)NCCc1ccccc1`: the RP-LC retention time was found to be 960 s.

In the case of `COc1ccc(-c2cn3cccnc3n2)cc1NC(=O)c1ccc(F)c(F)c1`, the RP-LC retention time was found to be 718 s. `Cc1cc(C)cc(NS(=O)(=O)c2cn(CC(C)C)c3ncccc23)c1` displayed an RP-LC retention time of 763 s. For the compound `COc1ccc(CNC(=O)COc2nc(C)nc3ccccc23)cc1`, the RP-LC retention time was 678 s. On to `CC1CCCCN1CCNC(=O)C1CCCN(c2cnc3nccnc3c2)C1` (centres undefined), for which the RP-LC retention time was found to be 570 s. `Cc1cc(NC(=O)CSc2nc(-c3cccs3)nc3c2c(=O)n(C)c(=O)n3C)no1` returned an RP-LC retention time of 780 s. In turn, `Cc1cc(=O)n(CC(=O)Nc2ccc(Br)cc2)c(N2CCCC2)n1` gave an RP-LC retention time of 666 s. With `CSc1ccc(CNC(=O)COc2nc(C)nc3ccccc23)cc1`, the RP-LC retention time was determined as 734 s. In turn, `O=S(=O)(c1ccc(-c2cc(C(F)(F)F)on2)o1)N1CCN(c2ncccn2)CC1` registered an RP-LC retention time of 1060 s.

For the compound `Cc1ccccc1Sc1nccnc1SCC(=O)N1CCN(c2ccccn2)CC1`, the RP-LC retention time amounted to 715 s. The compound `OCc1cnc(SCc2cccc(C(F)(F)F)c2)n1Cc1ccc2c(c1)OCO2` came in with an RP-LC retention time of 649 s. Next, `Cc1ccc(N2CCC(NC(=O)Nc3ccccc3)C2=O)cc1C` (centres undefined): 870 s; `Cn1cc(-c2ccncc2)cc1C(=O)NCc1ccc(F)cc1F`: 648 s.

`CC(C)Sc1ccc2nn(CC(=O)Nc3ccc(Br)cc3F)c(=O)n2n1`: the RP-LC retention time came to 843 s. Next, `Cc1cccc(-c2nnc(-c3cccc(S(=O)(=O)N(C)C)c3)o2)c1`: 982 s; `COCCNC(=O)C1CCCN(C(=O)c2[nH]c(C)c(C(=O)OC)c2C)C1` (centres undefined): 624 s.

`CN1C(=O)COc2ccc(-c3csc(NC(=O)c4ccc(F)cc4)n3)cc21` had an RP-LC retention time of 952 s.

The compound `O=C(NCCC1=CCCCC1)C1CCN(c2cnc3nccnc3c2)CC1` showed an RP-LC retention time of 737 s. To `CC(C)NC(=O)C1CC(=O)N(CCc2c[nH]c3ccc(Cl)cc23)C1` (centres undefined) belongs 731 s. Next, `Cc1c(CCC(=O)N[C@H](CCS(C)=O)C(=O)O)c(=O)oc2cc(O)ccc12` (some centres undefined): 575 s; `O=C(Nc1cnc2ccccc2c1)c1cccc([N+](=O)[O-])c1`: 717 s. `Cc1ccc(NC(=O)Cn2c(=O)n(-c3ccc(F)cc3)c(=O)c3c2cc(C)n3C)cc1C` showed an RP-LC retention time of 888 s. To `COc1cc2c(cc1OC)C(C(=O)N1CC(C)CC(C)C1)C(c1cccnc1)N(C)C2=O` (centres undefined) belongs 659 s; to `CNC(=O)[C@@H]1CN(C(=O)c2cc(C3CC3)[nH]n2)C[C@H]1c1n[nH]c(C)n1`, 577 s. Take `Cn1cc(S(=O)(=O)N2CCCCC2)cc1C(=O)NC1CCCCC1`: the RP-LC retention time is 953 s. Next, `Cc1ccc(-c2cc(C(=O)N(C)C)n(C)c2)cc1`: 891 s; `Cc1[nH]c(C(=O)Nc2ccc(F)cc2F)c(C)c1S(=O)(=O)N1CCCCC1`: 949 s; `COc1ccccc1CNC(=O)Cn1nc2c(N3CCC(C)CC3)nccn2c1=O`: 745 s.

On to `CCc1nn(C)c(=O)c2cc(S(=O)(=O)N3CCC(Cc4ccccc4)CC3)cn12`, for which the RP-LC retention time came out at 1050 s.
